In patent publication US20240246981A1, “[…] DERIVATIVES AS INHIBITORS OF […]-PEPTIDE CYCLOTRANSFERASE AND […]-PEPTIDE CYCLOTRANSFERASE LIKE PROTEIN” (Boehringer Ingelheim International GmbH, priority 2022, published 2024):
pIC50: −log10 of the molar value. Where two headings read alike, the source gives them in different places.

What was measured:
QPCT = QPCT (Homo sapiens (Human), UniProt Q16769); test: Assay A: biochemical QPCT activity assay (MALDI-TOF MS); conditions: read-out: Inhibition of QPCT: IC50
Summary of the method: (§1)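 Compounds preincubated 10 min at 24 °C with enzyme in 20 mM Tris pH 7.5, 0.1 mM TCEP, 0.01% BSA, 0.001% Tween20; CD47 peptide substrate (final 10 μM for QPCTL, 20 μM for QPCT) reacted 40 min at 24 °C. Pyroglutamate product read by MALDI-TOF MS versus internal standard, normalized to controls; four-parameter fit.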

QPCTL = QPCTL (Homo sapiens (Human), UniProt Q9NXS2); test: Assay A: biochemical QPCTL activity assay (MALDI-TOF MS); conditions: read-out: Inhibition of QPCTL: IC50
Summary of the method: as §1

Caco-2 cells = test: Assay C: permeability in CACO-2 cells; format: in vitro ADME; conditions: prior art compounds, Table 8; for Permeability A-B: Caco-2, apical to basolateral; for efflux ratio: Caco-2
Summary of the method: (§2)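 Compound in transport solution applied to apical or basolateral donor side for A-B or B-A permeability, 3 filter replicates. Donor sampled at start and end, receiver at intervals up to 2 hours with volume replaced; concentrations by HPLC-MS/MS or scintillation counting.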

[1] = Assay C: permeability in CACO-2 cells; format: in vitro ADME; conditions: human, pH 7.2; for Papp A→B / efflux ratio: compounds of the invention, Table 7
Summary of the method: as §2

[2] = tested on: SIRPα signalling induced by A549 cells; test: Assay B: SIRPα signalling assay using A549 cells; format: cell-based, human
Summary of the method: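 5000 Raji or A549 cells were cultured 48 h at 37 °C with serially diluted compound (DMSO), then 15000 Jurkat PathHunter SIRPα reporter cells were added for 5 h. Beta-galactosidase luminescence was developed at RT, and IC50 obtained by 4-parameter sigmoidal fit.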

[3] = tested on: SIRPα signalling induced by Raji cells; test: Assay B: SIRPα signalling assay using Raji cells; format: cell-based, human
Summary of the method: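 SIRPα signalling induced by Raji cells in a PathHunter reporter line, read as β-galactosidase complementation luminescence. Detection reagent 1 added for 15 min, then reagent 2 for 60 min in the dark, both at room temperature.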

[4] = molecular target: glutamine acyl cyclase isoenzyme (Homo sapiens (Human), UniProt Q9NXS2); conditions: given in CN 114874186; cited from earlier work
[5] = molecular target: human glutaminyl cyclase (hQC) (Homo sapiens (Human), UniProt Q16769); conditions: J-S, NCB 2015 supplementary information; read-out: IC50 on isolated hQC; cited from earlier work
[6] = compounds of the invention, Table 2
[7] = Homo sapiens, compounds of the invention, Table 4, read-out: Inhibition of SIRα signalling induced by A549 cells: IC50
[8] = Homo sapiens, prior art compounds, Table 5, read-out: Inhibition of SIRPα signalling induced by A549 cells: IC50
[9] = Homo sapiens, compounds of the invention, Table 4, read-out: Inhibition of SIRα signalling induced by Raji cells: IC50
[10] = Homo sapiens, prior art compounds, Table 5, read-out: Inhibition of SIRPα signalling induced by Raji cells: IC50
[11] = prior art compounds, Table 5, read-out: Inhibition of SIRPα signalling induced by A549 cells: IC50
[12] = prior art compounds, Table 5, read-out: Inhibition of SIRPα signalling induced by Raji cells: IC50

Sequence of QPCTL (Q9NXS2 whole entry): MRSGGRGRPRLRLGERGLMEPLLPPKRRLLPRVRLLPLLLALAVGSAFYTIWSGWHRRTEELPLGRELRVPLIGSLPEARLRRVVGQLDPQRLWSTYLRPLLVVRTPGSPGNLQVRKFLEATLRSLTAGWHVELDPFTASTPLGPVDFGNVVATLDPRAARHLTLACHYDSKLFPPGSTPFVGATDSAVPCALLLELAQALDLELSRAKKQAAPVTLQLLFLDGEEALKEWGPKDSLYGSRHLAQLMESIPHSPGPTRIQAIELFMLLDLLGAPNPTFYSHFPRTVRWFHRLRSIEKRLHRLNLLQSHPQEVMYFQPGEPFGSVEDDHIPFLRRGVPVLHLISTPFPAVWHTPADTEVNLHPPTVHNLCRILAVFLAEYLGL
Sequence of QPCT (Q16769 29-361): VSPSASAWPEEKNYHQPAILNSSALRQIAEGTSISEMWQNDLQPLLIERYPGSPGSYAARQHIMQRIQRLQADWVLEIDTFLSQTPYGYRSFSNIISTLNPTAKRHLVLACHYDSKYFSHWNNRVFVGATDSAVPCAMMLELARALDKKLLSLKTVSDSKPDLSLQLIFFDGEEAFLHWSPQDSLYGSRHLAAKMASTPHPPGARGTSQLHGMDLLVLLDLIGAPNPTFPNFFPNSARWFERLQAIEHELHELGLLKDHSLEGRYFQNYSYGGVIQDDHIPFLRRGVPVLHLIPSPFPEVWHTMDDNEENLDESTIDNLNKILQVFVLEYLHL
Sequence of glutamine acyl cyclase isoenzyme (Q9NXS2 whole entry): as the sequence (Q9NXS2 whole entry) above
Sequence of human glutaminyl cyclase (hQC) (Q16769 29-361): as the sequence (Q16769 29-361) above

| pIC50 (QPCT; [6]) | pIC50 (QPCTL; [6]) | Permeability A-B (Caco-2 cells) | efflux ratio (Caco-2 cells) | Papp A→B ([1]; Caco-2, apical to basolateral) | efflux ratio ([1]; Caco-2) | pIC50 [2, 7] | pIC50 [2, 8] | pIC50 [3, 9] | pIC50 [3, 10] | pIC50 (QPCT; prior art compounds, Table 3) | pIC50 (QPCTL; prior art compounds, Table 3) | pIC50 [2, 11] | pIC50 [3, 12] | Papp A→B at 2 h ([1]; Caco-2, apical to basolateral, prior art compounds, Table 8) | efflux ratio at 2 h ([1]; Caco-2, prior art compounds, Table 8) | Structure (SMILES) | pIC50 [4] | pIC50 [5] |
| --- | --- | --- | --- | --- | --- | --- | --- | --- | --- | --- | --- | --- | --- | --- | --- | --- | --- | --- |
| 7.29 | 7.96 | 93 10^−6 cm/s | 0.8 | 0.6 ×10⁻⁶ cm/s | 41.8 | 6.54 | 5.85 | 6.20 | 5.56 |  |  |  |  |  |  | COCCOc1ncc(-c2cccc(C#N)c2N2CCC(c3nncn3C)CC2)cn1 [compound 3, reference compound] |  |  |
|  |  | 73 10^−6 cm/s | 1.0 |  |  |  |  |  |  | 6.59 | 7.89 | 6.59 | 5.66 |  |  | Nc1nnc(C2CCN(c3ncccc3-c3ccc(F)nc3)CC2)s1 [compound 1095, reference compound] |  |  |
|  |  |  |  |  |  |  | < 5.00 |  | < 5.00 | 5.73 | 5.32 |  |  | 3.5 ×10⁻⁶ cm/s | 17.6 | Cn1cnnc1C1CCN(S(=O)(=O)c2cccc(Nc3ccc(OCc4ccccc4)nc3)c2)CC1 [compound 23, reference compound] | 7.95 |  |
| 8.15 | 9.00 | 0.2 10^−6 cm/s | 65.0 | 3.9 ×10⁻⁶ cm/s | 16.9 | 7.59 | 7.85 | 6.66 | 8.05 |  | 9.00 |  |  |  |  | Cn1cnnc1C1CCN(c2c(C#N)cccc2-c2cncc(-n3cccn3)c2)CC1 [compound 6, reference compound] |  |  |
|  |  | 68 10^−6 cm/s | 0.5 |  |  |  |  |  |  | 5.77 | 6.95 | 5.51 | 5.49 |  |  | Nc1ncc(C2CCN(c3ncccc3-c3ccc(F)nc3)CC2)s1 [compound 1094, reference compound] |  |  |
|  |  | 4.2 10^−6 cm/s |  |  |  |  |  |  |  | 6.75 |  | 6.06 | 5.53 |  |  | Cn1cnnc1C1CCN(c2ncccc2-c2cccnc2)CC1 [SEN180, reference compound] |  | 6.77 |
